Measurements published in patent publication US7396837B2, “Antitumoral analogs of lamellarins” (Pharma Mar, S.A.U., priority 2002, dated 2008).
Where two headings read alike, the source gives them in different places.

Tests used:
Type in all cases: cell-based
[1] = tested on: K-562; assay: SRB colorimetric cell growth inhibition assay, K-562; conditions: Homo sapiens, K562, K-562; for GI50: GI=growth inhibition, read-out: GI50 K-562; for CC50: read-out: LC50 K-562; for IC (TGI): read-out: TGI K-562
In short: (§1)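 Quantitation uses the sulforhodamine B reaction on cells exposed to sample for the whole assay period; results (mean ± SD, n = 3 wells) yield GI, TGI and LC.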

[2] = tested on: A-549; assay: SRB colorimetric cell growth inhibition assay, A-549; conditions: Homo sapiens, A549, A-549; for GI50: GI=growth inhibition, read-out: GI50 A-549; for CC50: read-out: LC50 A-549; for IC (TGI): read-out: TGI A-549
In short: as §1

[3] = tested on: SK-MEL-28; assay: SRB colorimetric cell growth inhibition assay, SK-MEL-28; conditions: Homo sapiens, SK-MEL-28, MEL-28; for GI50: GI=growth inhibition, read-out: GI50 MEL-28; for CC50: LC=cell killing (cytotoxic effect), read-out: LC50 MEL-28; for IC (TGI): TGI=total growth inhibition (cytostatic effect), read-out: TGI MEL-28
In short: as §1

[4] = tested on: HT-29; assay: SRB colorimetric cell growth inhibition assay, HT-29; conditions: Homo sapiens, HT-29, HT-29; for GI50: GI=growth inhibition, read-out: GI50 HT-29; for CC50: read-out: LC50 HT-29; for IC (TGI): read-out: TGI HT-29
In short: as §1

[5] = tested on: LoVo; assay: SRB colorimetric cell growth inhibition assay, LoVo; conditions: Homo sapiens, LoVo; for GI50: GI=growth inhibition, read-out: GI50 LOVO; for CC50: read-out: LC50 LOVO; for IC (TGI): read-out: TGI LOVO
In short: as §1

[6] = tested on: LoVo-Dox; assay: SRB colorimetric cell growth inhibition assay, LoVo-Dox (MDR); conditions: Homo sapiens, LOVO-DOX; for GI50: GI=growth inhibition, read-out: GI50 LOVO-DOX; for CC50: read-out: LC50 LOVO-DOX; for IC (TGI): read-out: TGI LOVO-DOX
In short: as §1

[7] = tested on: DU-145; assay: SRB colorimetric cell growth inhibition assay, DU-145; conditions: Homo sapiens, DU-145, DU-145; for GI50: GI=growth inhibition, read-out: GI50 DU-145; for CC50: LC=cell killing (cytotoxic effect), read-out: LC50 DU-145; for IC (TGI): TGI=total growth inhibition (cytostatic effect), read-out: TGI DU-145
In short: as §1

[8] = tested on: LNCaP; assay: SRB colorimetric cell growth inhibition assay, LNCaP; conditions: Homo sapiens, LNCaP, LN-caP; for GI50: GI=growth inhibition, read-out: GI50 LN-caP; for CC50: LC=cell killing (cytotoxic effect), read-out: LC50 LN-caP; for IC (TGI): TGI=total growth inhibition (cytostatic effect), read-out: TGI LN-caP
In short: as §1

[9] = tested on: SK-BR-3; assay: SRB colorimetric cell growth inhibition assay, SK-BR-3; conditions: Homo sapiens, SK-BR-3, SK-BR-3; for GI50: GI=growth inhibition, read-out: GI50 SK-BR-3; for CC50: LC=cell killing (cytotoxic effect), read-out: LC50 SK-BR-3; for IC (TGI): TGI=total growth inhibition (cytostatic effect), read-out: TGI SK-BR-3
In short: as §1

[10] = tested on: IGROV; assay: SRB colorimetric cell growth inhibition assay, IGROV; conditions: Homo sapiens, IGROV; for GI50: GI=growth inhibition, read-out: GI50 IGROV; for CC50: LC=cell killing (cytotoxic effect), read-out: LC50 IGROV; for IC (TGI): TGI=total growth inhibition (cytostatic effect), read-out: TGI IGROV
In short: as §1

[11] = tested on: IGROV-ET; assay: SRB colorimetric cell growth inhibition assay, IGROV-ET (ET-743 resistant); conditions: Homo sapiens, IGROV-ET; for GI50: GI=growth inhibition, read-out: GI50 IGROV-ET; for CC50: LC=cell killing (cytotoxic effect), read-out: LC50 IGROV-ET; for IC (TGI): TGI=total growth inhibition (cytostatic effect), read-out: TGI IGROV-ET
In short: as §1

[12] = tested on: PANC-1; assay: SRB colorimetric cell growth inhibition assay, PANC-1; conditions: Homo sapiens, PANC-1, PANC-1; for GI50: GI=growth inhibition, read-out: GI50 PANC-1; for CC50: read-out: LC50 PANC-1; for IC (TGI): read-out: TGI PANC-1
In short: as §1

[13] = tested on: SKOV-3; assay: SRB colorimetric cell growth inhibition assay, SKOV-3; conditions: Homo sapiens; for GI50: SK-OV-3, SKOV-3, GI=growth inhibition, read-out: GI50 SKOV-3; for CC50 / IC (TGI): SK-OV-3, SKOV-3; for CC50: LC=cell killing (cytotoxic effect), read-out: LC50 SKOV-3; for IC (TGI): TGI=total growth inhibition (cytostatic effect), read-out: TGI SKOV-3
In short: (§2)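 Growth and viability quantified by sulforhodamine B staining in 96-well microplates. Triplicate wells give mean ± SD; derived endpoints are GI, TGI (cytostatic) and LC (cytotoxic).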

[14] = SRB colorimetric cell growth inhibition assay, H-MEC-1; conditions: human, H-MEC-1 cells, H-MEC-1; LC=cell killing (cytotoxic effect); read-out: LC50 H-MEC-1
In short: as §2

[15] = tested on: H-MEC-1; assay: as above; conditions: Homo sapiens, HMEC-1, H-MEC-1; for GI50: GI=growth inhibition; for IC (TGI): TGI=total growth inhibition (cytostatic effect), read-out: TGI H-MEC-1
In short: as §2

[16] = cell killing (cytotoxic effect)
[17] = total growth inhibition (cytostatic effect)
[18] = LC=cell killing (cytotoxic effect)
[19] = TGI=total growth inhibition (cytostatic effect)

COc1cc(-c2c3n(c4c(=O)oc5cc(OC(=O)c6cc(F)c(F)c(F)c6F)c(OC)cc5c24)CCc2c-3cc(OC)c(OC)c2OC(=O)c2cc(F)c(F)c(F)c2F)ccc1OC(=O)c1cc(F)c(F)c(F)c1F [Compound 99]
GI50 [1]: 0.972 µM
CC50 [1, 16]: 2.26 µM
IC (TGI) [1, 17]: 1.48 µM
GI50 [2]: 9.44 µM
CC50 [2, 16]: 9.44 µM
IC (TGI) [2, 17]: 9.44 µM
GI50 [3]: 9.44 µM
CC50 [3]: 9.44 µM
IC (TGI) [3]: 9.44 µM
GI50 [4]: 9.44 µM
CC50 [4, 16]: 9.44 µM
IC (TGI) [4, 17]: 9.44 µM
GI50 [5]: 9.44 µM
CC50 [5, 16]: 9.44 µM
IC (TGI) [5, 17]: 9.44 µM
GI50 [6]: 9.44 µM
CC50 [6, 16]: 9.44 µM
IC (TGI) [6, 17]: 9.44 µM
GI50 [7]: 9.44 µM
CC50 [7]: 9.44 µM
IC (TGI) [7]: 9.44 µM
GI50 [8]: 4.46 µM
CC50 [8]: 9.44 µM
IC (TGI) [8]: 8.19 µM
GI50 [9]: 9.44 µM
CC50 [9]: 9.44 µM
IC (TGI) [9]: 9.44 µM
GI50 [10]: 3.07 µM
CC50 [10]: 9.44 µM
IC (TGI) [10]: 9.44 µM
GI50 [11]: 9.44 µM
CC50 [11]: 9.44 µM
IC (TGI) [11]: 9.44 µM
GI50 [12]: 9.44 µM
CC50 [12, 16]: 9.44 µM
IC (TGI) [12, 17]: 9.44 µM
GI50 [13]: 9.44 µM
CC50 [13]: 9.44 µM
IC (TGI) [13]: 9.44 µM
CC50 [14]: 7.42 µM
GI50 [15]: 4.06 µM
IC (TGI) [15]: 5.48 µM

COc1cc(-c2c3n(c4c(=O)oc5cc(OC(=O)[C@@H](N)COCc6ccccc6)c(OC)cc5c24)CCc2c-3cc(OC)c(OC)c2OC(=O)[C@@H](N)COCc2ccccc2)ccc1OC(=O)[C@@H](N)COCc1ccccc1 [Compound 66]
GI50 [1]: 0.982 µM
CC50 [1, 18]: 7.12 µM
IC (TGI) [1, 19]: 2.8 µM
GI50 [2]: 1.86 µM
CC50 [2, 18]: 6.43 µM
IC (TGI) [2, 19]: 3.46 µM
GI50 [3]: 1.42 µM
CC50 [3]: 4.55 µM
IC (TGI) [3]: 2.55 µM
GI50 [4]: 2.77 µM
CC50 [4, 18]: 7.12 µM
IC (TGI) [4, 19]: 6.77 µM
GI50 [5]: 2.19 µM
CC50 [5, 18]: 7.12 µM
IC (TGI) [5, 19]: 7.12 µM
GI50 [6]: 1.91 µM
CC50 [6, 18]: 7.12 µM
IC (TGI) [6, 19]: 5.56 µM
GI50 [7]: 1.73 µM
CC50 [7]: 7.12 µM
IC (TGI) [7]: 3.65 µM
GI50 [8]: 0.89 µM
CC50 [8]: 4.03 µM
IC (TGI) [8]: 1.89 µM
GI50 [9]: 0.434 µM
CC50 [9]: 7.12 µM
IC (TGI) [9]: 1.82 µM
GI50 [10]: 1.35 µM
CC50 [10]: 6.75 µM
IC (TGI) [10]: 3.02 µM
GI50 [11]: 1.22 µM
CC50 [11]: 6.87 µM
IC (TGI) [11]: 2.9 µM
GI50 [12]: 1.95 µM
CC50 [12, 18]: 7.12 µM
IC (TGI) [12, 19]: 7.12 µM
GI50 [13]: 2.85 µM
CC50 [13]: 7.12 µM
IC (TGI) [13]: 6.28 µM
CC50 [14]: 4.93 µM
GI50 [15]: 1.52 µM
IC (TGI) [15]: 2.73 µM
